According to patent publication US20090312297A1, “METHODS FOR TREATING HYPERCHOLESTEROLEMIA AND ATHEROSCLEROSIS” (PRESIDENT AND FELLOWS OF HARVARD COLLEGE, priority 2006, published 2009):

Assays:
Assay type in all cases: in vivo, mouse
apoE−/− mice [1] = experiment: Lipoprotein profile analysis of serum by HPLC in apoE−/− mice on western diet; conditions: Example 2, 3 months
Description: (§1) apoE−/− mice were purchased from Jackson Labs. At 6 weeks of age, the mice were placed on a western diet and treatments with either phosphate buffered saline (PBS) (vehicle); TUDCA (50 mg/kg/day or 500 mg/kg/day, single dose, i.p.); or 4-PBA (10 mg/kg/day, 200 mg/kg/day, or 1 g/kg/day, single dose, oral gavage) were started.
(§2) Blood samples were obtained from the animals described above. Lipoprotein profiles analysis was performed by HPLC (FIG. 2b), and total cholesterol levels (FIG. 2c). […] Moreover, the ability to reduce the development of atherosclerotic lesions is not dependent on the ability of a compound to reduce cholesterol.

apoE−/− mice [2] = experiment: Atherosclerotic lesions in aortas (Oil-Red-O staining) of apoE−/− mice on western diet; conditions: for atherosclerotic lesion area per full aorta: p<0.05 vs. control, FIG. 2(a)
Description: (§3) apoE−/− mice (a commonly used model of hypercholesterolemia and atherosclerosis) were purchased from Jackson Labs. At 6 weeks of age, the mice were placed on a western diet (to further increase cholesterol levels and vascular lesions) and treatments with either phosphate buffered saline (PBS) (vehicle) or TUDCA (500 mg/kg/day, single dose, i.p.) were started.
After 3 months of western diet and treatment, mice were sacrificed and aortas were dissected and fixed in 10% buffered formalin and stained with Oil-Red-O which stains lipids.
as §1
After 3 months of western diet and treatment, mice were sacrificed and aortas were dissected and fixed in 10% buffered formalin and stained with Oil-Red-O. The amount of atherosclerotic lesion area per full aorta was determine and is expressed as a percent as shown in FIG. 2(a). Mice receiving vehicle (PBS) developed robust atherosclerotic lesions in the aortic arch as well as in the thoracic and abdominal parts of the aorta (0.25%±0.06). […] PBA administration at a dose of 10 mg/kg/day was also found to be effective in reducing formation of atherosclerotic lesions (0.09%±0.03, n=4, p<0.05 vs. control).

apoE−/− mice [3] = experiment: Serum total cholesterol levels in apoE−/− mice on western diet; conditions: 3 months
Description: as §3
Blood samples were obtained from the animals described above and serum cholesterol levels were determined by the Piccolo automated device with lipid panel (Abaxis, Calif.).
as §1, §2

| SMILES | total cholesterol or specific lipoprotein levels (apoE−/− mice [1]; 4-PBA oral gavage (10 mg/kg in FIG. 2)) | amount of atherosclerotic lesion relative to control treated animals (apoE−/− mice [2]; Example 1, about 10 mg/kg/day, similar conditions) | atherosclerotic lesion area per full aorta (apoE−/− mice [2]; Example 2, 10 mg/kg/day oral gavage, 3 months, n=4) | reduction of formation of atherosclerotic lesions (apoE−/− mice [2]; Example 2, higher doses (200 mg/kg/day, 1 g/kg/day), oral gavage, 3 months) | serum cholesterol levels (apoE−/− mice [3]; Example 1, 500 mg/kg/day, single dose, i.p., Piccolo lipid panel, FIG. 1, vs PBS) | total cholesterol (apoE−/− mice [3]; Example 2, 500 mg/kg/day i.p., FIG. 2c) | total cholesterol or specific lipoprotein levels (apoE−/− mice [1]; 50 mg/kg/day i.p.) | HDL (apoE−/− mice [1]; 500 mg/kg/day i.p., FIG. 2b) | LDL (apoE−/− mice [1]; 500 mg/kg/day i.p., FIG. 2b) | VLDL (apoE−/− mice [1]; 500 mg/kg/day i.p., FIG. 2b) | Oil-Red-O staining of aortas (apoE−/− mice [2]; Example 1, 500 mg/kg/day, single dose, i.p., 3 months of western diet and treatment, vs PBS) | atherosclerotic lesion area per full aorta (apoE−/− mice [2]; Example 2, 50 mg/kg/day i.p., 3 months, n=3) | atherosclerotic lesion area per full aorta (apoE−/− mice [2]; Example 2, 500 mg/kg/day i.p., 3 months, n=3) |
| --- | --- | --- | --- | --- | --- | --- | --- | --- | --- | --- | --- | --- | --- |
| O=C(O)CCCc1ccccc1 [PBA, 4-phenyl butyrate] | no significant changes | effective in reducing the amount of atherosclerotic lesion | 0.09%±0.03 | no similar reduction was observed |  |  |  |  |  |  |  |  |  |
| C[C@H](CCC(=O)NCCS(=O)(=O)O)[C@H]1CC[C@H]2[C@@H]3[C@@H](O)C[C@@H]4C[C@H](O)CC[C@]4(C)[C@H]3CC[C@]12C [TUDCA, tauroursodeoxycholic acid] |  |  |  |  | significantly (p<0.001) lowered | significant decrease | no significant changes | marked increase | significant decrease | significant decrease | PBS treated animals had substantially more Oil-Red-O staining | 0.03%±0.01 | 0.01%±0.01 |
